Measured values published in EP3154958B1, “PHOSPHATIDYLINOSITOL 3-KINASE INHIBITORS” (Gilead Sciences, Inc., priority 2014, dated 2015).

Experiments:
Format in all cases: biochemical
PI3Kγ = molecular target: T1, PI3Kγ (Homo sapiens, UniProt P48736); assay: TR-FRET enzymatic activity assay, PI3Kγ; settings: recombinant heterodimeric PI3Kγ 2 nM, 2× Km ATP, 30 minutes at 25°C
T1 construct: made in house
Method in brief: (§1)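 Read-out is TR-FRET. The assay scores enzymatic activity of the individual PI3K isoforms in the presence of compound.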

PI3Kδ = molecular target: T2, PI3Kδ (Homo sapiens, UniProt O00329); assay: TR-FRET enzymatic activity assay, PI3Kδ; settings: recombinant heterodimeric PI3Kδ 25-50 pM, 2× Km ATP, 30 minutes at 25°C
T2 construct: made in house
T2 sequence (O00329 whole entry): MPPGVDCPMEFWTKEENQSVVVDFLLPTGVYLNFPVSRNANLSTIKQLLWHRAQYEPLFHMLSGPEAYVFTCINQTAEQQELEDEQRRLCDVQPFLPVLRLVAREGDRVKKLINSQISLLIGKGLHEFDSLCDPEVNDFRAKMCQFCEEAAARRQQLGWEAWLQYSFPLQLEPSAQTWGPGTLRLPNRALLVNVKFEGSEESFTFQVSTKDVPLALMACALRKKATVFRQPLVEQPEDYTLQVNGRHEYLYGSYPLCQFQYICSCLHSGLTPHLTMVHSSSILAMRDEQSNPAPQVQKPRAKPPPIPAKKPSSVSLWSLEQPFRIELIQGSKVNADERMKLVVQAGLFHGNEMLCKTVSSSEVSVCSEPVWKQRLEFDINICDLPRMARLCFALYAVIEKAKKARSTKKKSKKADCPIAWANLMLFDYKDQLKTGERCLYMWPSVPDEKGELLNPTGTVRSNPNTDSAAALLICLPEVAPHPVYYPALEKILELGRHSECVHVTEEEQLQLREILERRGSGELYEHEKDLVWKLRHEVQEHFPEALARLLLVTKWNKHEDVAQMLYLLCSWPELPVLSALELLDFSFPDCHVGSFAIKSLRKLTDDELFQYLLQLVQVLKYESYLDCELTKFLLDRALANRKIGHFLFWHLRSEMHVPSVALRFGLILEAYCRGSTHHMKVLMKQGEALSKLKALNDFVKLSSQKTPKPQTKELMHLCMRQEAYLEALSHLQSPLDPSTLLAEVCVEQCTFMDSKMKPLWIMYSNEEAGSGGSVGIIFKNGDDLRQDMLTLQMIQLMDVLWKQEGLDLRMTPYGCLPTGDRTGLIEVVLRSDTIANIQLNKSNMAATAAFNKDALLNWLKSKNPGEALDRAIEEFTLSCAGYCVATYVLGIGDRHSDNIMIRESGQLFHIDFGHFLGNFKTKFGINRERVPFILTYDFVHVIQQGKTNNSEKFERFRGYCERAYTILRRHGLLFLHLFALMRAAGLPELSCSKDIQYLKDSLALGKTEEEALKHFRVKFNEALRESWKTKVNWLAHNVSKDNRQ
T2 sequence (P27986 whole entry partner): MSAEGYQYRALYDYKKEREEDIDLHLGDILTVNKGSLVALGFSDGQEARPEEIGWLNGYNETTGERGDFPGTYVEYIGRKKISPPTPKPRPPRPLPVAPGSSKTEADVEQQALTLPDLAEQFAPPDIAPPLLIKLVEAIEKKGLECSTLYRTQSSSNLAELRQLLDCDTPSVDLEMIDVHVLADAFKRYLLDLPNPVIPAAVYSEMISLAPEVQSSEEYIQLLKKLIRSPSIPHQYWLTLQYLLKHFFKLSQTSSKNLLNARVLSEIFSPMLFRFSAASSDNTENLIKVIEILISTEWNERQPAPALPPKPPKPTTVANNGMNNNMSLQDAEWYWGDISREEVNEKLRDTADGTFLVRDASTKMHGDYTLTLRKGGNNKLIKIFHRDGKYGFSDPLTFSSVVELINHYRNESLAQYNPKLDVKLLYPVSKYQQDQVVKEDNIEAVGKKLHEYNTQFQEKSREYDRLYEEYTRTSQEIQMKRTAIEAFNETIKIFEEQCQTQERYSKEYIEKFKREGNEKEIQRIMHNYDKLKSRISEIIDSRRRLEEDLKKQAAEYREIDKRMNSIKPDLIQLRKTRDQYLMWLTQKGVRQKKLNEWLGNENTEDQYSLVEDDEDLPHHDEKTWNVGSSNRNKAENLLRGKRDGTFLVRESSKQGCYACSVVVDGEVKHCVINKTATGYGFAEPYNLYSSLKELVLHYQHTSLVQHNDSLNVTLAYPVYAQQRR
Method in brief: as §1

PI3Kβ = molecular target: T3, PI3Kβ (Homo sapiens, UniProt P42338); assay: TR-FRET enzymatic activity assay, PI3Kβ; settings: for IC50: recombinant heterodimeric PI3Kβ 25-50 pM, 2× Km ATP, 30 minutes at 25°C; for PI3Kγ/PI3Kβ ratio: ratio of IC50 values
T3 construct: made in house
T3 sequence (P42338 whole entry): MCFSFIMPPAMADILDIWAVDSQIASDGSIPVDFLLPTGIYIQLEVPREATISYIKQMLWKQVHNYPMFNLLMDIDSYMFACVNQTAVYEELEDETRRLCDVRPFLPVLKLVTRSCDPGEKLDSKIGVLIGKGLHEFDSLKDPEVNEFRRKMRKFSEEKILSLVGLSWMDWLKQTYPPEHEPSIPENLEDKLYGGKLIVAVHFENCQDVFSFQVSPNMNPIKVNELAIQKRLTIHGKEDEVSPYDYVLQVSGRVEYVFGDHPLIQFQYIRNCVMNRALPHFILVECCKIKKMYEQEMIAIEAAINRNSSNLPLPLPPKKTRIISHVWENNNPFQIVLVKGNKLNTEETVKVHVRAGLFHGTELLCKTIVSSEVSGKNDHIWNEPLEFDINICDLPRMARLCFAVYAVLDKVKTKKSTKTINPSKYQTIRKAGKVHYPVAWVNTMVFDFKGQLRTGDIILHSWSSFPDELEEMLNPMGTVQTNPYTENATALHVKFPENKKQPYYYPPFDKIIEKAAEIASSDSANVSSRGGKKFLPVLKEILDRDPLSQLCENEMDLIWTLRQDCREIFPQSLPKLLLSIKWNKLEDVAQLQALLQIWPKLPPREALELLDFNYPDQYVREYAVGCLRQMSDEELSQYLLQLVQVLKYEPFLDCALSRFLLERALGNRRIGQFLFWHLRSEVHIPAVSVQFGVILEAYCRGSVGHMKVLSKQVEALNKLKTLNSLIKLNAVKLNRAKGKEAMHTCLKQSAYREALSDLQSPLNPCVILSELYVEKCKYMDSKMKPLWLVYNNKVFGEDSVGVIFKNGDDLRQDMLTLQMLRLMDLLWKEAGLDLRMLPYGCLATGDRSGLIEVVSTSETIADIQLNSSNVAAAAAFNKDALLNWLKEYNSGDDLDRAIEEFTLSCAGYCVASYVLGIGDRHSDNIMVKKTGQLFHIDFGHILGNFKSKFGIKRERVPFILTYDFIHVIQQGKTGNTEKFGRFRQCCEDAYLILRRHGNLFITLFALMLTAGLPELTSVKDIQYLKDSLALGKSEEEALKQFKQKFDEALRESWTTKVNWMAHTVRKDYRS
T3 sequence (P27986 whole entry partner): as the sequence (P27986 whole entry partner) above
Method in brief: as §1

T1 sequence (P48736 whole entry): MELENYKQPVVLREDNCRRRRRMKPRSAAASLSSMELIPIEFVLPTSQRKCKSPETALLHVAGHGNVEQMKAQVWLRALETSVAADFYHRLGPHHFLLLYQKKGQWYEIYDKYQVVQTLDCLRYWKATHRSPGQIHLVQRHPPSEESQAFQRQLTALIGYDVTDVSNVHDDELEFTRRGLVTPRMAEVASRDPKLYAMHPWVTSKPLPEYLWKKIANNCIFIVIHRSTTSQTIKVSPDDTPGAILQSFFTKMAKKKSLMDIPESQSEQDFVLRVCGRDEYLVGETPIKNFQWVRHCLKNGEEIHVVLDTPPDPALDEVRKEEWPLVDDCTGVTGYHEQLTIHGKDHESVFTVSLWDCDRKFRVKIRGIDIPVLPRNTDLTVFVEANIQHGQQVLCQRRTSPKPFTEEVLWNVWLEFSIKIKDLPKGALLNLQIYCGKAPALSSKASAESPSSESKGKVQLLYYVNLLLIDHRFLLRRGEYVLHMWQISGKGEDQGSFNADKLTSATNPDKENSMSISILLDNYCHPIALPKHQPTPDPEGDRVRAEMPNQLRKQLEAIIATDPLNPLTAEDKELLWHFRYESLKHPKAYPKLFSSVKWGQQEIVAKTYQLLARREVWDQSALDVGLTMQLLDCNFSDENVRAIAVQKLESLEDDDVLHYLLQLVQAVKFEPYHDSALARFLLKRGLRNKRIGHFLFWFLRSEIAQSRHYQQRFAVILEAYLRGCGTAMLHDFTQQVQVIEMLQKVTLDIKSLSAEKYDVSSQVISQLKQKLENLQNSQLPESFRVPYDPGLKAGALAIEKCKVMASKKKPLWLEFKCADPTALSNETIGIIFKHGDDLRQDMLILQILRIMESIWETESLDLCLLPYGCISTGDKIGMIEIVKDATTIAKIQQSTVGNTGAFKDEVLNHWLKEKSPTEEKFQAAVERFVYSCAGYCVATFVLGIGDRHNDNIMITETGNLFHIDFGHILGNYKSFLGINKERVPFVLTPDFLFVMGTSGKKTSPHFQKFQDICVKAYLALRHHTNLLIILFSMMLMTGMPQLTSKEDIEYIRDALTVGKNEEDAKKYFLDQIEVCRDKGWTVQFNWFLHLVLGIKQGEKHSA
T1 sequence (Q8WYR1 whole entry partner): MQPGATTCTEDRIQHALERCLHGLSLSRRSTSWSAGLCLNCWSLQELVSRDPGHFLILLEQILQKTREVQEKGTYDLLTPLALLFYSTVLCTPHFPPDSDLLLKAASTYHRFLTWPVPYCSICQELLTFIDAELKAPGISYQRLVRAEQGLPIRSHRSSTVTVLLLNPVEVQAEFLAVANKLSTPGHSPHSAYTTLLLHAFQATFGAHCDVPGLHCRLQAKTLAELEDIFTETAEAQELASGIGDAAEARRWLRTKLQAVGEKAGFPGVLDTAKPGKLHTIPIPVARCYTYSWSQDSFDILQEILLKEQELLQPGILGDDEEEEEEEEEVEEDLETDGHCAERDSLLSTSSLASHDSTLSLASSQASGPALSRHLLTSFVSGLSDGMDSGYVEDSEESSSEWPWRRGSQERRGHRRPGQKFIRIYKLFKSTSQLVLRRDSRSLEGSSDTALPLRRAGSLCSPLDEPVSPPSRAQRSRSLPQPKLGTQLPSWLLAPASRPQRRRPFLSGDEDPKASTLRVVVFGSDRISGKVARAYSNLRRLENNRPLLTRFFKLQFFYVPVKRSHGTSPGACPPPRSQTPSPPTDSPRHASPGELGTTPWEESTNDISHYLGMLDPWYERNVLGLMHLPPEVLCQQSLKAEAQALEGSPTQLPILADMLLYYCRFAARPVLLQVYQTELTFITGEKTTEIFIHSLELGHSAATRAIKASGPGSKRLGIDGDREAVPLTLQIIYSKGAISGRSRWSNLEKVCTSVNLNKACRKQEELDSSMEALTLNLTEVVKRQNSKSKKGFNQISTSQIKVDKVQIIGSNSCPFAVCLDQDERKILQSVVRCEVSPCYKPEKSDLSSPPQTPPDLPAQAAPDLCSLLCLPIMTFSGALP

Compound	IC50 (PI3Kγ) [nM]	IC50 (PI3Kδ) [nM]	IC50 (PI3Kβ) [nM]	PI3Kγ/PI3Kβ ratio (PI3Kβ)	PI3Kγ/PI3Kβ ratio (PI3Kβ; as stated in b147)
C[C@H](Nc1ncnc(N)c1C#N)c1nc2cccc(Cl)c2c(=O)n1N1CCNCC1 [Compound 55, (S)-4-amino-6-((1-(5-chloro-4-oxo-3-(piperazin-1-yl)-3,4-dihydroquinazolin-2-yl)ethyl)amino)pyrimidine-5-carbonitrile]	> 10000	1	14		
Cc1cccc2nc([C@H](C)Nc3ncnc(N)c3C#N)n(C3CCNCC3)c(=O)c12 [Compound 60, (S)-4-amino-6-((1-(5-methyl-4-oxo-3-(piperidin-4-yl)-3,4-dihydroquinazolin-2-yl)ethyl)amino)pyrimidine-5-carbonitrile]	> 10000	5	130		
C[C@H](Nc1nc(N)nc(N)c1C#N)c1nc2cccc(Cl)c2c(=O)n1[C@H]1CCNC1 [Compound 30, 2,4-diamino-6-(((S)-1-(5-chloro-4-oxo-3-((S)-pyrrolidin-3-yl)-3,4-dihydroquinazolin-2-yl)ethyl)amino)pyrimidine-5-carbonitrile]	> 10000	140	350		
C[C@H](Nc1nc(N)nc(N)c1Cl)c1nc2cccc(Cl)c2c(=O)n1N1CCN(CC(F)F)CC1 [Compound 112, (S)-5-chloro-2-(1-((2,6-diamino-5-chloropyrimidin-4-yl)amino)ethyl)-3-(4-(2,2-difluoroethyl)piperazin-1-yl)quinazolin-4(3H)-one]	> 10000	280	7800		
CC(C)C[C@H](Nc1nc(N)nc(N)c1C#N)c1nc2cccc(Cl)c2c(=O)n1N1CCNCC1 [Compound 75, (S)-2,4-diamino-6-((1-(5-chloro-4-oxo-3-(piperazin-1-yl)-3,4-dihydroquinazolin-2-yl)-3-methylbutyl)amino)pyrimidine-5-carbonitrile]	> 10000	15	37		
C[C@H](Nc1ncnc(N)c1C#N)c1nc2cccc(Cl)c2c(=O)n1C1CCN(CC(F)(F)F)CC1 [Compound 103, (S)-4-amino-6-((1-(5-chloro-4-oxo-3-(1-(2,2,2-trifluoroethyl)piperidin-4-yl)-3,4-dihydroquinazolin-2-yl)ethyl)amino)pyrimidine-5-carbonitrile]	> 10000	10	2200		
C[C@H](Nc1nc(N)nc(N)c1Cl)c1nc2c(F)ccc(Cl)c2c(=O)n1N1CCNCC1 [Compound 20, (S)-5-chloro-2-(1-((2,6-diamino-5-chloropyrimidin-4-yl)amino)ethyl)-8-fluoro-3-(piperazin-1-yl)quinazolin-4(3H)-one]	> 10000	20	40		
C[C@H](Nc1ncnc2cccnc12)c1nc2cccc(Cl)c2c(=O)n1C1CCCNCC1 (stereo partly drawn) [Compound 81, 3-(azepan-4-yl)-5-chloro-2-((S)-1-(pyrido[3,2-d]pyrimidin-4-ylamino)ethyl)quinazolin-4(3H)-one]	> 10000	35	520		
C[C@H](Nc1nc(N)nc(N)c1C#N)c1nc2cccc(Cl)c2c(=O)n1-c1ccccc1 [Compound X, (S)-2,4-diamino-6-((1-(5-chloro-4-oxo-3-phenyl-3,4-dihydroquinazolin-2-yl)ethyl)amino)pyrimidine-5-carbonitrile, reference compound]	7	0.2	11	0.6	less than 1 fold
C[C@H](NC(=O)c1nc(Cl)c(N)nc1N)c1nc2cccc(Cl)c2c(=O)n1N1CCNCC1 [Compound 33, (S)-3,5-diamino-6-chloro-N-(1-(5-chloro-4-oxo-3-(piperazin-1-yl)-3,4-dihydroquinazolin-2-yl)ethyl)pyrazine-2-carboxamide]	7400	14	4		
C[C@H](Nc1nc(N)nc(N)c1Cl)c1nc2cccc(Cl)c2c(=O)n1N1CCNCC1 [Compound 72, (S)-5-chloro-2-(1-((2,6-diamino-5-chloropyrimidin-4-yl)amino)ethyl)-3-(piperazin-1-yl)quinazolin-4(3H)-one]	> 10000	11	28		
C[C@H](Nc1ncnc2scc(Cl)c12)c1nc2cccc(Cl)c2c(=O)n1N1CCNCC1 [Compound 35, (S)-5-chloro-2-(1-((5-chlorothieno[2,3-d]pyrimidin-4-yl)amino)ethyl)-3-(piperazin-1-yl)quinazolin-4(3H)-one]	> 10000	93	570		

Further molecules by falling IC50 (PI3Kγ), results first:

IC50 (PI3Kγ) [nM]	IC50 (PI3Kδ) [nM]	IC50 (PI3Kβ) [nM]	Compound	PI3Kγ/PI3Kβ ratio (PI3Kβ)	PI3Kγ/PI3Kβ ratio (PI3Kβ; as stated in b147)
6400	22	170	C[C@H](Nc1nc(N)nc(N)c1C#N)c1nc2cccc(Cl)c2c(=O)n1[C@H]1CCCNC1 [Compound 28, 2,4-diamino-6-(((S)-1-(5-chloro-4-oxo-3-((S)-piperidin-3-yl)-3,4-dihydroquinazolin-2-yl)ethyl)amino)pyrimidine-5-carbonitrile]		
5700	56	6	C[C@H](NC(=O)c1c(N)nn2cccnc12)c1nc2cccc(Cl)c2c(=O)n1N1CCNCC1 [Compound 36, (S)-2-amino-N-(1-(5-chloro-4-oxo-3-(piperazin-1-yl)-3,4-dihydroquinazolin-2-yl)ethyl)pyrazolo[1,5-a]pyrimidine-3-carboxamide]		
5400	3	4	C[C@H](Nc1nc(N)nc(N)c1C#N)c1nc2c(F)ccc(F)c2c(=O)n1N1CCNCC1 [Compound 39, (S)-2,4-diamino-6-((1-(5,8-difluoro-4-oxo-3-(piperazin-1-yl)-3,4-dihydroquinazolin-2-yl)ethyl)amino)pyrimidine-5-carbonitrile]		
4900	4	5	C[C@H](Nc1nc(N)nc(N)c1C#N)c1nc2c(Cl)cc(F)cc2c(=O)n1N1CCNCC1 [Compound 126, (S)-2,4-diamino-6-((1-(8-chloro-6-fluoro-4-oxo-3-(piperazin-1-yl)-3,4-dihydroquinazolin-2-yl)ethyl)amino)pyrimidine-5-carbonitrile]		
3200	2	3	C[C@H](Nc1ncnc2ccc(Cl)nc12)c1nc2cccc(Cl)c2c(=O)n1N1CCNCC1 [Compound 71, (S)-5-chloro-2-(1-((6-chloropyrido[3,2-d]pyrimidin-4-yl)amino)ethyl)-3-(piperazin-1-yl)quinazolin-4(3H)-one]		
3100	31	91	C[C@H](Nc1nc(N)nc(N)c1C#N)c1nc2cccc(Cl)c2c(=O)n1C1CNC1 [Compound 29, (S)-2,4-diamino-6-((1-(3-(azetidin-3-yl)-5-chloro-4-oxo-3,4-dihydroquinazolin-2-yl)ethyl)amino)pyrimidine-5-carbonitrile]		
2000	23	52	CC[C@H](Nc1nc(N)nc(C)c1C#N)c1nc2cccc(Cl)c2c(=O)n1N1CCN(Cc2ccc(F)cc2)CC1 [Compound 90, (S)-2-amino-4-((1-(5-chloro-3-(4-(4-fluorobenzyl)piperazin-1-yl)-4-oxo-3,4-dihydroquinazolin-2-yl)propyl)amino)-6-methylpyrimidine-5-carbonitrile]		
1400	27	41	CC[C@H](Nc1nc(N)nc(N)c1C#N)c1nc2cccc(Cl)c2c(=O)n1N1CCN(Cc2ccc(OC)cc2)CC1 [Compound 92, (S)-2,4-diamino-6-((1-(5-chloro-3-(4-(4-methoxybenzyl)piperazin-1-yl)-4-oxo-3,4-dihydroquinazolin-2-yl)propyl)amino)pyrimidine-5-carbonitrile]		
890	0.7	2	Cc1nc(N)nc(N[C@@H](C)c2nc3c(F)ccc(Cl)c3c(=O)n2N2CCNCC2)c1C#N [Compound 21, (S)-2-amino-4-((1-(5-chloro-8-fluoro-4-oxo-3-(piperazin-1-yl)-3,4-dihydroquinazolin-2-yl)ethyl)amino)-6-methylpyrimidine-5-carbonitrile]		
860	0.8	2	C[C@H](Nc1nc(N)nc(N)c1C#N)c1nc2cccc(Cl)c2c(=O)n1N1CCNC2(CC2)C1 [Compound 7, (S)-2,4-diamino-6-((1-(5-chloro-4-oxo-3-(4,7-diazaspiro[2.5]octan-7-yl)-3,4-dihydroquinazolin-2-yl)ethyl)amino)pyrimidine-5-carbonitrile]		
660	14	290	Cc1nc(N)nc(N[C@@H](C)c2nc3cccc(Cl)c3c(=O)n2N2CCN(CC(F)(F)F)CC2)c1C#N [Compound 109, (S)-2-amino-4-((1-(5-chloro-4-oxo-3-(4-(2,2,2-trifluoroethyl)piperazin-1-yl)-3,4-dihydroquinazolin-2-yl)ethyl)amino)-6-methylpyrimidine-5-carbonitrile]		
560	26	300	Cc1nc(N)nc(N[C@@H](C)c2nc3cccc(Cl)c3c(=O)n2N2CCN(CC(F)F)CC2)c1C#N [Compound 114, (S)-2-amino-4-((1-(5-chloro-3-(4-(2,2-difluoroethyl)piperazin-1-yl)-4-oxo-3,4-dihydroquinazolin-2-yl)ethyl)amino)-6-methylpyrimidine-5-carbonitrile]		
350	6	5	C[C@H](Nc1nc(N)nc(N)c1C#N)c1nc2cccc(Cl)c2c(=O)n1N1CCN(C)CC1 [Compound 125, (S)-2,4-diamino-6-((1-(5-chloro-3-(4-methylpiperazin-1-yl)-4-oxo-3,4-dihydroquinazolin-2-yl)ethyl)amino)pyrimidine-5-carbonitrile]		
